In patent US20230270881A1, “ONCOGENIC TRIM37 IS A TARGETABLE EPIGENETIC DRIVER OF METASTASIS AND LINKS CHEMORESISTANCE AND METASTATIC FATE IN TRIPLE-NEGATIVE BREAST CANCER” (University of Virginia Patent Foundation, priority 2020, published 2023):

Columns and labels:
HCC1806 tumors = assay: NSG tumor xenograft, Dox-induced TRIM37 upregulation; format: in vivo; conditions: mice bearing HCC1806RR subcutaneous tumors, 2 mg/kg Dox
Experimental: (§1) NSG tumor xenograft studies. All animal procedures were conducted under the accordance of the University of Virginia IACUC with approved protocol (4112 and 4222). For different cell lines, weight and aged matched female NSG mice were injected subcutaneously with 2×10^6 TNBC cells in their right flank with indicated cell line in matrigel. 2×10^6 HCC1806RR or 231-2b were injected in 100 µl volume. For Dox-induced TRIM37 upregulation studies in tumor, mice bearing ~200 mm^3 HCC1806 tumors weight matched animals were randomly assigned into groups and injected with 2 mg/kg Dox. Tumors were harvested 24 hrs. following Dox treatment. For smart nanoparticles efficiency in vivo, mice bearing ~200 mm^3 231-2b tumors weight matched animals were randomly assigned into groups and injected with control or smart nanoparticles. At the endpoint, RNA and protein lysates were prepared from isolated tumors and analyzed by western blotting.

231-2b tumors = assay: NSG tumor xenograft, smart nanoparticles with or without Dox; format: in vivo, NSG mice; conditions: 231-2b xenografts; 1.2 mg/kg nanoparticles intra-tumor every three days for 18 days; 2 mg/kg Dox two doses
Experimental: as §1
To investigate the outcome of TRIM37 targeting in clinical settings, we challenged 231-2b-derived xenografts with smart nanoparticles in combination with chemotherapy. When tumors reached the size of ~50 mm^3, animals received two doses of either 2 mg/kg Dox or vehicle (FIG. 7J). Furthermore, within each group, animals were randomly administered 1.2 mg/kg (~4×10^7nanoparticles) of smart or control nanoparticles intra-tumor every three days for 18 days (FIG. 7J).

TRIM37 = assay: Immunoblotting of TRIM37 in treated cells; format: cell-based, human
Experimental: Immunoblotting. Cell extracts were prepared by lysing cell pellet in RIPA buffer supplemented with 1 mM sodium ortho-vanadate and 10 mM PMSF. To prepare protein extract from mouse tissue, it was homogenized in lysis buffer (1% SDS, 1 mM sodium ortho-vanadate, 10 mM Tris pH 7.4 and protease inhibitor). Immunoblots were probed using antibodies against TRIM37 (Abcam), PARP (Cell Signaling Technology), p21 (Cell Signaling Technology), γ-ph-H2AX (Cell Signaling Technology), RAD51C (Invitrogen), ph-ATM (Cell Signaling Technology), ph-STAT1 (Cell Signaling Technology), ph-STAT3 (Cell Signaling Technology), ph-STAT5 (Cell Signaling Technology), BIM (Abcam), FOLR1 (R&D) and α-tubulin (Invitrogen).

COc1cccc2c1C(=O)c1c(O)c3c(c(O)c1C2=O)C[C@@](O)(C(=O)CO)C[C@@H]3O[C@H]1C[C@H](N)[C@H](O)[C@H](C)O1 [doxorubicin]
TRIM37 in xenograft tumors (HCC1806 tumors): upregulated TRIM37
TRIM37 in xenograft tumors (HCC1806 tumors; listed as dox): increased TRIM37 level
tumor growth (231-2b tumors): significantly attenuated
TRIM37 expression (TRIM37; MCF7 or MCF10A cells): no increase
TRIM37 expression (TRIM37; MDA MB 468, HCC1806 and MDA MB 231 cells): dose- and time-dependent upregulation
